Measurements reported in publication PMC5854708, “Grass Carp Prolactin Gene: Structural Characterization and Signal Transduction for PACAP-induced Prolactin Promoter Activity” (Scientific Reports, 2018).

Key:
CREB = conditions: mammalian cell models; via cAMP/PKA, cAMP/ERK and/or PLC/PKC; cited from earlier work
Text: CREB is a member of the leucine zipper transcription factors and well-known to be involved in the activation of cAMP-inducible genes. […] Expression of a dominant-negative form of CREB (MCREB) inhibited basal and Forskolin-induced PRL promoter activity and PRL mRNA expression in rat lactotrophs ...

αT3-1 cells, total IP = assay: Total inositol phosphate measurement in αT3-1 cells; format: cell-based, rat (αT3-1 cells, as printed); conditions: myo-[3H] inositol labelled αT3-1 cells, 10 mM LiCl; treatment 45 min; GnRH 1 μM
Protocol: Figure 7 Functional role of the PLC/IP3/PKC and CaM/CaMK-II cascades in PACAP- and Forskolin-induced PRL promoter activity. αT3-1 cells were transiently transfected with pPRL(−1156).LUC for 6 h by using lipofectamine. After 18 h recovery, the cells were incubated with respective drugs. […] (B) Transfected αT3-1 cells were labeled with 2 μCi/well of myo-[3 H] inositol (DuPont/NEN) in myo-inositol free DMEM medium containing 10% fetal bovine serum and then treated with oPACAP38, VIP, and GnRH for 45 mins. The total IP production were analyzed by detecting the radio-labelled inositol incorporation.
Transfected αT3-1 cells were labeled with 2 μCi/well of myo-[^3H] inositol (DuPont/NEN) in myo-inositol free DMEM medium containing 10% fetal bovine serum. After incubation for 12 hr at 37 °C, myo-[^3H] inositol labeling medium was removed, and αT3-1 cells were washed two times with prewarmed phosphate buffered saline (PBS; pH 7.4) to remove trace of the excessive myo-[^3H] inositol. The transfected cells were then incubated in DMEM containing 0.1% BSA and 10 mM LiCl (to inhibit inositol phosphate degradation) for 20 min at 37 °C before drug treatment. After that, the transfected cells were treated with ovine PACAP38, VIP, and GnRH for 45 min. […] Levels of radioactivity in these samples were measured using a liquid scintillation counter (Beckman).

[1] = system: grass carp PRL promoter (pPRL(−1156).Luc) in αT3-1 cells; format: cell-based, grass carp (promoter); rat (αT3-1 cells, as printed); conditions: 0.1–1000 nM, 24 hr, n = 4
Protocol: The cells were then cultured for 18 hr recovery before drug treatment. (A) Time course analysis on the effect of oPACAP38 (6–48 hrs) on grass carp PRL promoter activity in αT3-1 cells. (B) αT3-1 cells over-expressed pPRL(−1156).LUC were treated for 24 hrs with increasing doses of oPACAP38. Effects of PACAP and VIP antagonists on PACAP-induced PRL mRNA expression were also investigated. In these experiments, αT3-1 cells over-expressed pPRL(−1156).LUC were challenged with oPACAP38 (10 nM, 24 hr) in the presence or absence of (C) the PACAP antagonist PACAP6-38 (10 nM) or (D) VIP antagonist (4-Cl-D-Phe6, Leu17)VIP (“VIP-R antagonist”, 100 nM).
After 18 h recovery, the cells were incubated with respective drugs. (A) αT3-1 cells over-expressed pPRL(−1156).LUC were treated for 24 hrs with increasing doses of cpt-cAMP (1–100 μM). (B) αT3-1 cells over-expressed pPRL(−1156).LUC were treated for 24 hrs with increasing doses of Forskolin (10–1000 nM). Effects of cAMP/PKA inhibitors on PACAP-induced PRL mRNA expression were then investigated. αT3-1 cells over-expressed pPRL(−1156).LUC were challenged with oPACAP38 (10 nM, 24 hr) in the presence or absence of (C) AC inhibitor MDL12330A (10 μM) or (D) PKA blocker H89 (10 μM).
After 18 h recovery, the cells were incubated with respective drugs. The cells were treated for 24 hr with increasing doses of (A) Ca^2+ ionophore A23187 or (B) L-type VSCC activator Bay K8644. Inhibiting extracellular Ca^2+ entry on PRL mRNA expression in carp pituitary cells was examined. In this study, αT3-1 cells over-expressed pPRL(−1156).LUC were treated with (C) oPACAP38 (10 nM, 24 hrs) or (D) Forskolin (100 nM, 24 hrs) in the Ca^2+-free medium (with different doses of EGTA).
After 18 h recovery, the cells were incubated with respective drugs.

ERK in αT3–1 cells = conditions: cited from earlier work
Text: (§1) In primary pituitary cells, PRL production induced by PACAP via functional coupling of cAMP/PKA−, Ca^2+/CaM−, and MAPK-dependent cascades. At the transcription level, cAMP/PKA and Ca^2+/CaM/CaM-II pathways are consistently involved in the PACAP regulation on PRL promoter activity. In mammalian cell models, e.g., in human SH-SY5Y neuroblastoma cells, functional coupling of MAPK (e.g., Erk1/2 and P38^MAPK) with cAMP-dependent mechanism has been reported. […] However, in our studies with αT3-1 cells, the inhibitors f ...

ERK in GH3 cells = conditions: cited from earlier work
Text: as §1

[2] = system: tCREB in grass carp pituitary cells; assay: Western blot of tCREB in primary grass carp pituitary cells; conditions: oPACAP38, 24 hrs

## pituitary adenylate cyclase-activating peptide [PACAP]
CREB
  CREB phosphorylation: trigger CREB phosphorylation
αT3-1 cells, total IP
  total IP level: enhance total IP level
[1]
  concentration of maximal response, luciferase activity: 1000 nM
  dose dependence of luciferase activity expression: up-regulate luciferase activity expression in a dose-dependent manner
[1]; read-out: EC50 value, luciferase activity (PRL promoter activity)
  EC50: 4.5 nM
ERK in αT3–1 cells
  ERK activation: stimulates ERK activation
ERK in GH3 cells
  ERK activation: triggered ERK activation
[2]
  total CREB production: stimulated total CREB production
